In patent US11008572B2, “Methods and compositions for modulating splicing” (SKYHAWK THERAPEUTICS, INC., priority 2017, dated 2021):
Read-outs that look alike come from different tables or passages of the source.

Key:
[1] = test system: FOXM1^A2 mRNA and FOXM1^BC mRNA; assay: Splicing assay (FOXM1), qPCR of isoform mRNAs; format: cell-based
Outline: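 Cells (20,000/well) treated at plating with compound, 8-point 4-fold series from 10 μM, 0.2% DMSO, 24 h at 37° C. Isoform mRNAs quantified by RT-qPCR against plasmid standards, normalized to PPIA and DMSO control; isoform ratio computed per concentration.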

A-673 cells = assay: Cell viability, crystal violet staining; format: cell-based; details: Homo sapiens
Outline: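 Readout is absorbance at 570 nm of crystal violet, taken up in 0.1 M sodium citrate in 50% ethanol after staining with 0.5% dye in 25% methanol. Plates held 5×10^3 cells per well, and compounds were added one day after seeding for 72 hours. Data are relative to vehicle, mean±SE.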

[2] = FoxM1 BC mRNA decrease (exon included), read-out: Splice IC50 (nM) FoxM1 BC mRNA decrease (exon included)
[3] = read-out: Splice EC50 (nM) FoxM1 A mRNA increase (exon excluded)
[4] = A673, cell viability, read-out: A-673 IC50 (nM) Cell viability
[5] = 24 h, FoxM1 BC mRNA decrease (exon included), 0.1-1000 nM, 24 hours, read-out: Splice IC50 (nM), FoxM1 BC mRNA decrease (exon included)
[6] = FoxM1 A mRNA increase (exon excluded), 0.1-1000 nM, 24 hours, read-out: Splice EC50 (nM), FoxM1 A mRNA increase (exon excluded)
[7] = A673, cell viability, read-out: A-673 IC50 (nM), Cell viability

Row | Compound | IC50 [1, 5] | EC50 [1, 6] | IC50 (A-673 cells; [7]) | further results
1 | CNC(=O)c1cc2cc(O)c(-c3ccc(N(C)[C@H]4C[C@]5(C)CC[C@](C)(C4)N5)nn3)cc2o1 [compound 188, 6-(6-(((1R,3s,5S)-1,5-dimethyl-8-azabicyclo[3.2.1]octan-3-yl)(methyl)amino)pyridazin-3-yl)-5-hydroxy-N-methylbenzofuran-2-carboxamide] |  |  |  | IC50 [1, 2]: 10 to 100 nM; EC50 [1, 3]: < 10 nM; IC50 (A-673 cells; [4]): 10 to 100 nM
2 | COc1cc(-c2ccc(-c3ccc(N(C)[C@H]4C[C@]5(C)CC[C@](C)(C4)N5)nn3)c(O)c2)cnn1 [compound 191, 2-(6-(((1R,3s,5S)-1,5-dimethyl-8-azabicyclo[3.2.1]octan-3-yl)(methyl)amino)pyridazin-3-yl)-5-(6-methoxypyridazin-4-yl)phenol] |  |  |  | IC50 ([1]; Homo sapiens, A673, 24 h, A-673 cells, 24 hours, table does not say EC50 or IC50, read-out: FOXM1): < 1 nM; IC50 ([1]; Homo sapiens, A-375, 24 h, A-375 cells, 24 hours, table does not say EC50 or IC50, read-out: FOXM1): 1 to 10 nM; IC50 ([1]; Homo sapiens, K562, 24 h, K-562 cells, 24 hours, table does not say EC50 or IC50, read-out: FOXM1): 1 to 10 nM; IC50 ([1]; Homo sapiens, MDA-MB-468, 24 h, MDA-MB-468 cells, 24 hours, table does not say EC50 or IC50, read-out: FOXM1): 1 to 10 nM; IC50 ([1]; Homo sapiens, NCI-H358, 24 h, NCI-H358 cells, 24 hours, table does not say EC50 or IC50, read-out: FOXM1): 1 to 10 nM; IC50 ([1]; Homo sapiens, PANC-1, 24 h, PANC-1 cells, 24 hours, table does not say EC50 or IC50, read-out: FOXM1): 101 to 200 nM; IC50 ([1]; Homo sapiens, PC-3, 24 h, PC-3 cells, 24 hours, table does not say EC50 or IC50, read-out: FOXM1): 11 to 100 nM; IC50 ([1]; Homo sapiens, U-87 MG, 24 h, U-87MG cells, 24 hours, table does not say EC50 or IC50, read-out: FOXM1): 11 to 100 nM; IC50 (A-673 cells; [4]): < 10 nM; IC50 (A-673 cells; A673, read-out: A-673 cell viability (IC50)): < 1 nM
3 | CNC(=O)c1cc2cc(-c3ccc(N(C)[C@H]4C[C@]5(C)CC[C@](C)(C4)N5)nn3)c(O)cc2o1 [compound 192, 5-(6-(((1R,3s,5S)-1,5-dimethyl-8-azabicyclo[3.2.1]octan-3-yl)(methyl)amino)pyridazin-3-yl)-6-hydroxy-N-methylbenzofuran-2-carboxamide] |  |  |  | IC50 [1, 2]: < 10 nM; EC50 [1, 3]: < 10 nM; IC50 (A-673 cells; [4]): 10 to 100 nM
4 | Cc1nnc(-c2ccc(-c3ccc(N(C)[C@@H]4C[C@H]5CC[C@@H](C4)N5)nn3)c(O)c2)o1 [compound 219, 2-(6-(((1R,3s,5S)-8-azabicyclo[3.2.1]octan-3-yl)(methyl)amino)pyridazin-3-yl)-5-(5-methyl-1,3,4-oxadiazol-2-yl)phenol] | 10 to 100 nM | 10 to 100 nM | > 1000 nM | 
5 | CN(c1ccc(-c2ccc(-n3cccn3)cc2O)nn1)[C@@H]1C[C@H]2CC[C@@H](C1)N2 [compound 220, 2-(6-(((1R,3s,5S)-8-azabicyclo[3.2.1]octan-3-yl)(methyl)amino)pyridazin-3-yl)-5-(1H-pyrazol-1-yl)phenol] | 10 to 100 nM | < 10 nM | 10 to 100 nM | 
6 | Cc1cnn(-c2ccc(-c3ccc(N(C)[C@@H]4C[C@H]5CC[C@@H](C4)N5)nn3)c(O)c2)c1 [compound 221, 2-(6-(((1R,3s,5S)-8-azabicyclo[3.2.1]octan-3-yl)(methyl)amino)pyridazin-3-yl)-5-(4-methyl-1H-pyrazol-1-yl)phenol] | 10 to 100 nM | 10 to 100 nM | 101 to 250 nM | 
7 | Cc1ccn(-c2ccc(-c3ccc(N(C)[C@@H]4C[C@H]5CC[C@@H](C4)N5)nn3)c(O)c2)n1 [compound 222, 2-(6-(((1R,3s,5S)-8-azabicyclo[3.2.1]octan-3-yl)(methyl)amino)pyridazin-3-yl)-5-(3-methyl-1H-pyrazol-1-yl)phenol] | 10 to 100 nM | < 10 nM | 10 to 100 nM | 
8 | CN(c1ccc(-c2ccc(-n3ccnn3)cc2O)nn1)[C@@H]1C[C@H]2CC[C@@H](C1)N2 [compound 224, 2-(6-(((1R,3s,5S)-8-azabicyclo[3.2.1]octan-3-yl)(methyl)amino)pyridazin-3-yl)-5-(1H-1,2,3-triazol-1-yl)phenol] | 10 to 100 nM | < 10 nM | 101 to 250 nM | 
9 | Cc1cn(-c2ccc(-c3ccc(N(C)[C@@H]4C[C@H]5CC[C@@H](C4)N5)nn3)c(O)c2)nn1 [compound 225, 2-(6-(((1R,3s,5S)-8-azabicyclo[3.2.1]octan-3-yl)(methyl)amino)pyridazin-3-yl)-5-(4-methyl-1H-1,2,3-triazol-1-yl)phenol] | 10 to 100 nM | 10 to 100 nM | 10 to 100 nM | 
10 | CN(c1ccc(-c2ccc(-c3c[nH]nn3)cc2O)nn1)[C@@H]1C[C@H]2CC[C@@H](C1)N2 [compound 226, 2-(6-(((1R,3s,5S)-8-azabicyclo[3.2.1]octan-3-yl)(methyl)amino)pyridazin-3-yl)-5-(1H-1,2,3-triazol-4-yl)phenol] | 10 to 100 nM | 10 to 100 nM | 101 to 250 nM | 
11 | CN(c1ccc(-c2ccc(-c3nnn[nH]3)cc2O)nn1)[C@@H]1C[C@H]2CC[C@@H](C1)N2 [compound 227, 2-(6-(((1R,3s,5S)-8-azabicyclo[3.2.1]octan-3-yl)(methyl)amino)pyridazin-3-yl)-5-(1H-tetrazol-5-yl)phenol] | > 1000 nM | > 1000 nM | > 1000 nM | 
12 | Cc1cc(-c2ccc(-c3ccc(N(C)[C@@H]4C[C@H]5CC[C@@H](C4)N5)nn3)c(O)c2)on1 [compound 229, 2-(6-(((1R,3s,5S)-8-azabicyclo[3.2.1]octan-3-yl)(methyl)amino)pyridazin-3-yl)-5-(3-methylisoxazol-5-yl)phenol] | > 1000 nM | > 1000 nM | > 1000 nM | 
13 | Cc1nccn1-c1ccc(-c2ccc(N(C)[C@@H]3C[C@H]4CC[C@@H](C3)N4)nn2)c(O)c1 [compound 230, 2-(6-(((1R,3s,5S)-8-azabicyclo[3.2.1]octan-3-yl)(methyl)amino)pyridazin-3-yl)-5-(2-methyl-1H-imidazol-1-yl)phenol] | 501 to 1000 nM | 101 to 250 nM | > 1000 nM | 
14 | Cc1cn(-c2ccc(-c3ccc(N(C)[C@@H]4C[C@H]5CC[C@@H](C4)N5)nn3)c(O)c2)c(C)n1 [compound 231, 2-(6-(((1R,3s,5S)-8-azabicyclo[3.2.1]octan-3-yl)(methyl)amino)pyridazin-3-yl)-5-(2,4-dimethyl-1H-imidazol-1-yl)phenol] | 501 to 1000 nM | 251 to 500 nM | > 1000 nM | 
15 | CN(c1ccc(-c2ccc(-c3nnc(C(F)(F)F)o3)cc2O)nn1)[C@@H]1C[C@H]2CC[C@@H](C1)N2 [compound 232, 2-(6-(((1R,3s,5S)-8-azabicyclo[3.2.1]octan-3-yl)(methyl)amino)pyridazin-3-yl)-5-(5-(trifluoromethyl)-1,3,4-oxadiazol-2-yl)phenol] | 501 to 1000 nM | 101 to 250 nM | > 1000 nM | 
16 | Cc1nnn(-c2ccc(-c3ccc(N(C)[C@@H]4C[C@H]5CC[C@@H](C4)N5)nn3)c(O)c2)n1 [compound 234, 2-(6-(((1R,3s,5S)-8-azabicyclo[3.2.1]octan-3-yl)(methyl)amino)pyridazin-3-yl)-5-(5-methyl-2H-tetrazol-2-yl)phenol] | 10 to 100 nM | 10 to 100 nM | 10 to 100 nM | 
17 | Cc1ccc(-c2ccc(-c3ccc(N(C)[C@@H]4C[C@H]5CC[C@@H](C4)N5)nn3)c(O)c2)nn1 [compound 239, 2-(6-(((1R,3s,5S)-8-azabicyclo[3.2.1]octan-3-yl)(methyl)amino)pyridazin-3-yl)-5-(6-methylpyridazin-3-yl)phenol] | < 10 nM | < 10 nM | 251 to 500 nM | 
18 | CN(c1ccc(-c2ccc(-c3ccc(=O)n(C)c3)cc2O)nn1)[C@@H]1C[C@H]2CC[C@@H](C1)N2 [compound 241, 5-(4-(6-(((1R,3s,5S)-8-azabicyclo[3.2.1]octan-3-yl)(methyl)amino)pyridazin-3-yl)-3-hydroxyphenyl)-1-methylpyridin-2(1H)-one] | 10 to 100 nM | < 10 nM | 101 to 250 nM | 
19 | CN(c1ccc(-c2ccc(-n3cnc(C(F)(F)F)c3)cc2O)nn1)[C@@H]1C[C@H]2CC[C@@H](C1)N2 [compound 242, 2-(6-(((1R,3s,5S)-8-azabicyclo[3.2.1]octan-3-yl)(methyl)amino)pyridazin-3-yl)-5-(4-(trifluoromethyl)-1H-imidazol-1-yl)phenol] | 101 to 250 nM | 10 to 100 nM | 251 to 500 nM | 
20 | CN(c1ccc(-c2ccc(-n3cncn3)cc2O)nn1)[C@@H]1C[C@H]2CC[C@@H](C1)N2 [compound 243] | 10 to 100 nM | < 10 nM | 10 to 100 nM | 
21 | Cc1cn(-c2ccc(-c3ccc(O[C@@H]4C[C@H]5CC[C@@H](C4)N5)nn3)c(O)c2)cn1 [compound 246, 2-(6-(((1R,3s,5S)-8-azabicyclo[3.2.1]octan-3-yl)oxy)pyridazin-3-yl)-5-(4-methyl-1H-imidazol-1-yl)phenol] | 101 to 250 nM | 10 to 100 nM | 251 to 500 nM | 
22 | Cc1cnn(-c2ccc(-c3ccc(O[C@@H]4C[C@H]5CC[C@@H](C4)N5)nn3)c(O)c2)c1 [compound 249, 2-(6-(((1R,3s,5S)-8-azabicyclo[3.2.1]octan-3-yl)oxy)pyridazin-3-yl)-5-(4-methyl-1H-pyrazol-1-yl)phenol] | 251 to 500 nM | 101 to 250 nM | 501 to 1000 nM | 
